US4970206A, “Pyroglutamic acid esters used as dermal penetration enhancers for drugs” (Merck & Co., Inc., priority 1989, dated 1990)
Where two headings read alike, the source gives them in different places.

What was measured:
[1] = In vitro diffusion cell permeation through shed snake skin (Example 4); type: in vitro ADME, Elaphae obsolete (black rat snake); details: 32°; for flux of indomethacin: pH 7.2
Procedure: (§1) In the examples given below, the permeation enhancement was determined using an in vitro diffusion cell procedure. The molts of adult Elaphae obsolete (black rat snake) was used as the model for stratum corneum membrane (R. Ibuki, Ph.D. Thesis, University of Kansas, 1985). The shed snake skin has great similarities to human skin in terms of thickness, composition of constituents and structure and has been proposed as the most suitable model for human stratum corneum for permeability studies.
(§2) Glass diffusion cells consisting of a donor and receptor cells separated by the shed snake skin membrane were assembled using circular O-ring joints held together by spring clamps. The exposed membrane surface area of the diffusion cell measured 1.8 cm^2. Before being mounted in the diffusion cell approximately 25 mg of an ointment containing the therapeutic agent and the penetration enhancer was carefully applied to the membrane and was spread over the desired area. The receptor side was filled with approximately 8.5 ml of buffer solution consisting of 1.5×10^-1 M NaCl, 5×10^-4 NaH2 PO4 and 2.0×10^-4 M Na2 HPO4 adjusted to pH 7.2 with NaOH. The diffusion cell was immersed vertically in a water bath maintained at 32°±1° C. The receptor cell was stirred constantly with a magnetic stirrer. To determine the amount of compound penetrated through the snake skin membrane from the upper chamber, 0.2 ml samples were withdrawn at varying intervals from the receptor chamber using a syringe. An equal amount of fresh buffer was replenished during sampling. The concentration of drug penetrated in each diffusion cell was measured using high pressure liquid chromatography. The results reported for each experiment are the average values from 5 replicate diffusion cells.
The ointments used for the experiments contained varying concentrations of the drug and penetration enhancing agent. The drug was dispersed in the enhancer and this was then mixed with white petrolatum USP using a vortex mixer around 55° C. The ointments were kept in a water bath at 32°±1° C. for 1 day before use in in vitro studies. See Tables II and III below for the results of penetration enhancement effects.

[2] = tested on: skin (dorsal surface) of fuzzy rats; experiment: Skin Irritation Study (modified Draize, 3-day occlusive dermal application); type: in vivo; design: key: modified Draize index, 0-8 (erythema 0-4 + edema 0-4); details: 3 DAY occlusion, 50 mg over 2 cm^2, maximum 8; for Primary Irritation Index (PII), T0-T72 hrs: irritation index ± SD (n)
Procedure: Fuzzy rats (Temple University) 150 to 200 g were used to study the dermal irritancy as the neat compounds. Test preparations (50 mg) were applied to circular gauze pads 1 mm thick and 16 mm in diameter, and affixed to the animals' dorsal surface with occlusive adhesive film (Adhesive Plaster for Patch Test, Kanebo, Ltd., Osaka, Japan). The occlusive dressings were removed after 3 or 7 days. Treated skin areas were then evaluated according to a modified Draize scoring method, and the irritation index was evaluated for each test site. The first or "primary irritation index" (PII) was an average value reflecting irritation both immediately after dressing removal, and 72 hours later. The "secondary irritation index" (SII) was determined 7 days after dressing removal. The maximum possible PII or SII was 8 with a total possible score of 4 erythema, and a total possible score of 4 for edema. A PII or SII less than or equal to 2 indicated a mild irritant, a PII or SII greater than 2 but less than or equal to 6 indicated a moderate irritant, and a PII greater than 6 indicated a severe irritant as shown in Table 1 below: […]

[3] = type: in vitro ADME, Elaphae obsolata (black rat snake); details: n = 5; for Flux of 2,3-dihydro-5-hydroxy-6-(o-hydroxymethylcinnamyl)benzofuran ± SD / % of 2,3-dihydro-5-hydroxy-6-(o-hydroxymethylcinnamyl)benzofuran delivered in 48 hrs ± SD: 1% (w/w) drug with 15% (w/w) enhancer; for Flux of 2,3-dihydro-5-hydroxy-6-(o-hydroxymethylcinnamyl)benzofuran ± SD: 32°
Procedure: The transport of 2,3-dihydro-5-hydroxy-6-(o-hydroxymethylcinnamyl)benzofuran, through shed snake skin, which has been reported to be a good model for human stratum corneaum in terms of thickness, compositional features, structure and permeability, was measured in the presence of decyl, dodecyl and oleyl esters of L-pyroglutamic acid used as penetration enhancers.
Because of the poor aqueous solubility of 2,3-dihydro 5-hydroxy-6-(o-hydroxymethylcinnamyl)benzofuran (<0.0002 mg/ml at 32°), 20% propyleneglycol in isotonic pH 7.2 phosphate buffer was used as the receptor medium. […] A weighed amount of a petrolatum ointment (30-35 mg) containing 1% (w/w) of 2,3-dihydro-5-hydroxy-6-(o-hydroxymethylcinnamyl)benzofuran with or without 15% (w/w) of the permeation enhancer was applied to 1.76 cm^2 area of shed skin of adult Elaphae obsolata (black rat snake), and held between the donor and receptor compartments of a diffusion cell by O-rings. […] The diffusion cells were maintained at 32°±1° C. The amount of drug diffused into the receptor chamber was measured by HPLC using acetonitrile-water (2:3) at a flow rate of 1 ml/min as mobile phase, a C18 column and a UV detector set at […]. The results (Table IV below) are averages of five diffusion cells for each experiment.

[4] = Permeation enhancement of enalapril, clonidine and acyclovir using pyroglutamic esters; type: in vitro ADME, Elaphae obsolete (black rat snake); details: for Flux of clonidine ± SD / % of clonidine delivered in 48 hrs ± SD: clonidine with enhancer; for Flux of enalapril ± SD / % of enalapril delivered in 48 hrs ± SD: enalapril with enhancer; for % delivered in 48 hrs ± SD: no enhancer; for Flux of acyclovir ± SD / % of acyclovir delivered in 48 hrs ± SD: acyclovir with enhancer
Procedure: as §1
as §2, with “The results reported for each experiment are the average values from 5 replicate diffusion cells.” left out

Aqueous solubility = type: physicochemical; details: water, at 32°
Rat plasma hydrolysis = type: in vitro ADME; details: 37° C., decanol generated, by GC, read-out: t 1/2 of enzymatic hydrolysis in rat plasma
Procedure: Freshly prepared rat plasma (2 ml) was mixed with decyl pyroglutamate (0.6 mg) and was maintained at 37° C. Aliquots were removed at different time intervals and vortexed with heptane (1 ml) containing dodecanol as an internal standard. The decanol produced by enzymatic hydrolysis was assayed by gas chromatography on a 6'×2 mm (id) column packed with OV-101 (methylsilicone) on gas chrom Q (100-120 mesh), programmed from 125° to 175° C.

[5] = dodecyl pyroglutamate as enhancer, weight ratio of enhancer/drug 15
[6] = dodecyl pyroglutamate, weight ratio of enhancer/drug 0 (no enhancer)
[7] = weight ratio of enhancer/indomethacin 15.0

Question: For C[C@]12CCC(=O)C=C1CC[C@@H]1[C@@H]2[C@@H](O)C[C@@]2(C)[C@H]1CC[C@]2(O)C(=O)CO [Hydrocortisone], which flux of drug [1, 5] is on record?
Answer: 0.338 μg/cm^2 /hr

Question: What about the flux of drug [1, 6] of the same compound?
Answer: Not detectable

Question: For CCCCCCCCCCCCN1CCCCCC1=O [Azone, reference compound], which “Primary Irritation Index (PII), T0-T72 hrs” value [2] is on record?
Answer: 4.0 ± 1.9

Question: What about the “Secondary Irritation Index (SII) at 7 days” value [2] of the same compound?
Answer: 0

Question: Which results are given for CCCCCCCC/C=C\CCCCCCCCOC(=O)[C@@H]1CCC(=O)N1 [Oleyl pyroglutamate]?
Answer: Primary Irritation Index (PII), T0-T72 hrs [2]: 0.1 ± 0.3; Secondary Irritation Index (SII) at 7 days [2]: 0; flux of indomethacin [1, 7]: 0.450 μg/cm^2 /hr; Flux of 2,3-dihydro-5-hydroxy-6-(o-hydroxymethylcinnamyl)benzofuran ± SD [3]: 0.95 ± 0.09 μg/cm^2 /hr; % of 2,3-dihydro-5-hydroxy-6-(o-hydroxymethylcinnamyl)benzofuran delivered in 48 hrs ± SD ([3]; 48 hrs): 21.7 ± 1.1%; Flux of clonidine ± SD [4]: 0.26 ± 0.15 μg/cm^2 /hr; % of clonidine delivered in 48 hrs ± SD [4]: 4.4 ± 1.4%; Flux of enalapril ± SD [4]: 0.92 ± 0.22 μg/cm^2 /hr; % of enalapril delivered in 48 hrs ± SD [4]: 18.7 ± 5.4%

Question: Which results are given for CC(C)=CCCC(C)=CCCC(C)=CCOC(=O)[C@@H]1CCC(=O)N1 [Farnesyl pyroglutamate]?
Answer: Primary Irritation Index (PII), T0-T72 hrs [2]: 0; Secondary Irritation Index (SII) at 7 days [2]: 0; flux of indomethacin [1, 7]: 0.317 μg/cm^2 /hr

Question: With CC(C)NCC(O)COc1cccc2ccccc12 (centres unmarked) [Propranolol] as the compound, how does the flux of drug [1, 5] read?
Answer: 7.410 μg/cm^2 /hr

Question: And the flux of drug [1, 6]?
Answer: 3.680 μg/cm^2 /hr

Question: For COc1ccc2c(c1)c(CC(=O)O)c(C)n2C(=O)c1ccc(Cl)cc1 [Indomethacin, indomethacin], which flux of indomethacin ([1]; no enhancer) is on record?
Answer: non-detectable

Question: Which results are given for OCc1ccccc1C=CCc1cc2c(cc1O)CCO2 [2,3-dihydro-5-hydroxy-6-(o-hydroxymethylcinnamyl)benzofuran, reference compound]?
Answer: Flux ± SD ([3]; 1% (w/w) drug, no enhancer): 0.19 μg/cm^2 /hr; % delivered in 48 hrs ± SD ([3]; 1% (w/w) drug, no enhancer, 48 hrs): 4.24 ± 0.53%; solubility (Aqueous solubility): < 0.2 µg/mL

Question: For Nc1nc2c(ncn2COCCO)c(=O)[nH]1 [Acyclovir, reference compound], which “% delivered in 48 hrs ± SD” value ([4]; acyclovir) is on record?
Answer: not detectable

Question: Which results are given for CCCCCCCCCCCCOC(=O)[C@@H]1CCC(=O)N1 [Dodecyl pyroglutamate]?
Answer: Primary Irritation Index (PII), T0-T72 hrs [2]: 0; Secondary Irritation Index (SII) at 7 days [2]: 0; flux of indomethacin [1, 7]: 0.630 μg/cm^2 /hr; Flux of 2,3-dihydro-5-hydroxy-6-(o-hydroxymethylcinnamyl)benzofuran ± SD [3]: 0.61 ± 0.04 μg/cm^2 /hr; % of 2,3-dihydro-5-hydroxy-6-(o-hydroxymethylcinnamyl)benzofuran delivered in 48 hrs ± SD ([3]; 48 hrs): 13.4 ± 1.5%; Flux of acyclovir ± SD [4]: 0.072 ± 0.04 μg/cm^2 /hr; % of acyclovir delivered in 48 hrs ± SD [4]: 0.26 ± 0.15%; Flux of clonidine ± SD [4]: 0.63 ± 0.21 μg/cm^2 /hr; % of clonidine delivered in 48 hrs ± SD [4]: 13.2 ± 0.6%; Flux of enalapril ± SD [4]: 0.51 ± 0.09 μg/cm^2 /hr; % of enalapril delivered in 48 hrs ± SD [4]: 9.9 ± 2.7%

Question: Which “% delivered in 48 hrs ± SD” value ([4]; clonidine, n = 12) does the source give for Clc1cccc(Cl)c1N=C1NCCN1 [Clonidine, reference compound] here?
Answer: 1.1 ± 0.3%

Question: Which results are given for CCCCCCCCCCOC(=O)[C@@H]1CCC(=O)N1 [Decyl pyroglutamate, Decyl Pyroglutamate]?
Answer: half-life (Rat plasma hydrolysis): 1.7 min; Primary Irritation Index (PII), T0-T72 hrs [2]: 0.9 ± 1.1; Secondary Irritation Index (SII) at 7 days [2]: 0; flux of indomethacin [1, 7]: 0.477 μg/cm^2 /hr; Flux of 2,3-dihydro-5-hydroxy-6-(o-hydroxymethylcinnamyl)benzofuran ± SD [3]: 0.70 ± 0.06 μg/cm^2 /hr; % of 2,3-dihydro-5-hydroxy-6-(o-hydroxymethylcinnamyl)benzofuran delivered in 48 hrs ± SD ([3]; 48 hrs): 16.1 ± 3.0%; Flux of acyclovir ± SD [4]: 0.063 ± 0.01 μg/cm^2 /hr; % of acyclovir delivered in 48 hrs ± SD [4]: 0.25 ± 0.03%; Flux of clonidine ± SD [4]: 0.31 ± 0.13 μg/cm^2 /hr; % of clonidine delivered in 48 hrs ± SD [4]: 8.1 ± 2.1%; Flux of enalapril ± SD [4]: 0.15 ± 0.01 μg/cm^2 /hr; % of enalapril delivered in 48 hrs ± SD [4]: 4.3 ± 0.9%
